Assay results as given in PubChem BioAssay AID248 (DTP/NCI, 2004).
Toxic doses and inconclusive results are not listed. Cut-off read from the data, not from the text of the source: active = T/C of 150% or more; inactive = T/C below 125%.

System: L1210 leukemia ip in BDF1 mice, survival T/C
Assay: NCI In Vivo Anticancer Drug Screen. Data for tumor model L1210 Leukemia (intraperitoneal) in B6D2F1 (BDF1) mice
Settings: endpoint: mean survival time, higher = longer survival
Summary of the method: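 Tumor cells were implanted, animals were treated, and survival was followed. The result divides the treated measurement by the vehicle-control measurement.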

[1] = dose: 100.0 mg/kg/injection, schedule: Q01DX009 (ip), vehicle: saline with Tween-80
[2] = dose: 200.0 mg/kg/injection, schedule: Q01DX009 (ip), vehicle: saline with Tween-80
[3] = dose: 400.0 mg/kg/injection, schedule: Q01DX009 (ip), vehicle: saline with Tween-80
[4] = dose: 100.0 mg/kg/injection, schedule: Q04DX003 (ip), vehicle: saline with Tween-80
[5] = dose: 200.0 mg/kg/injection, schedule: Q04DX003 (ip), vehicle: saline with Tween-80
[6] = dose: 400.0 mg/kg/injection, schedule: Q04DX003 (ip), vehicle: saline with Tween-80

Measured: T/C

N#C/C(=C\c1cccc(N)c1)c1ccccc1
inactive: dose: 100.0 mg/kg/injection, schedule: Q01DX001 (ip), vehicle: saline with Tween-80 100 % of control | dose: 200.0 mg/kg/injection, schedule: Q01DX001 (ip), vehicle: saline with Tween-80 95 % of control

CCOc1ccc(/C=C2\N=C(c3cc(OC)c(OC)c(OC)c3)OC2=O)cc1
inactive: [1] 102 % of control | dose: 100.0 mg/kg/injection, schedule: Q04DX002 (ip), vehicle: Klucel (hydroxypropylcellulose) (HPC) 96 % of control | [2] 123 % of control | dose: 200.0 mg/kg/injection, schedule: Q04DX002 (ip), vehicle: Klucel (hydroxypropylcellulose) (HPC) 86 % of control | [3] 108 % of control | dose: 400.0 mg/kg/injection, schedule: Q04DX002 (ip), vehicle: Klucel (hydroxypropylcellulose) (HPC) 96 % of control

Cc1ccc(N2CCNCC2)cc1Cl
inactive: dose: 12.5 mg/kg/injection, schedule: Q01DX009 (ip), vehicle: saline 100 % of control | dose: 25.0 mg/kg/injection, schedule: Q01DX009 (ip), vehicle: saline 91 % of control | dose: 50.0 mg/kg/injection, schedule: Q01DX009 (ip), vehicle: saline 102 % of control | dose: 50.0 mg/kg/injection, schedule: Q04DX003 (ip), vehicle: saline 102 % of control

COC(=O)CCNC(=O)C1CSC(C)(C)N1C=O (stereo unspecified)
inactive: dose: 100.0 mg/kg/injection, schedule: Q04DX003 (ip), vehicle: saline 97 % of control | dose: 200.0 mg/kg/injection, schedule: Q04DX003 (ip), vehicle: saline 97 % of control | dose: 400.0 mg/kg/injection, schedule: Q04DX003 (ip), vehicle: saline 90 % of control

CCC(=O)c1ccc2ccccc2c1
inactive: dose: 100.0 mg/kg/injection, schedule: Q04DX003 (ip), vehicle: Klucel (hydroxypropylcellulose) (HPC) 100 % of control | dose: 200.0 mg/kg/injection, schedule: Q04DX003 (ip), vehicle: Klucel (hydroxypropylcellulose) (HPC) 104 % of control | dose: 400.0 mg/kg/injection, schedule: Q04DX003 (ip), vehicle: Klucel (hydroxypropylcellulose) (HPC) 100 % of control

O=C(Nc1ccc(Cl)cc1)NC1CC1
inactive: dose: 62.5 mg/kg/injection, schedule: Q01DX009 (ip), vehicle: saline with Tween-80 91 % of control | dose: 125.0 mg/kg/injection, schedule: Q01DX009 (ip), vehicle: saline with Tween-80 90 % of control | dose: 250.0 mg/kg/injection, schedule: Q01DX009 (ip), vehicle: saline with Tween-80 95 % of control

O=C(Sc1ccccc1)N(c1ccccc1)c1ccccc1
inactive: dose: 100.0 mg/kg/injection, schedule: Q04DX002 (ip), vehicle: gum acacia 117 % of control | dose: 200.0 mg/kg/injection, schedule: Q04DX002 (ip), vehicle: gum acacia 101 % of control | dose: 400.0 mg/kg/injection, schedule: Q04DX002 (ip), vehicle: gum acacia 96 % of control

COSc1ccc([N+](=O)[O-])cc1[N+](=O)[O-]
inactive: [4] 96 % of control | [5] 100 % of control | [6] 103 % of control

CCc1c(C(OC)OC)[nH]c(=S)[nH]c1=O
inactive: [1] 94 % of control | [4] 100 % of control | [2] 100 % of control | [5] 100 % of control | [3] 94 % of control | [6] 105 % of control

CCOC(=O)/C=C\CBr
inactive: dose: 4.0 mg/kg/injection, schedule: Q01DX015 (ip), vehicle: carboxymethylcellulose (CMC) 95 % of control | dose: 8.0 mg/kg/injection, schedule: Q01DX015 (ip), vehicle: carboxymethylcellulose (CMC) 93 % of control | dose: 16.0 mg/kg/injection, schedule: Q01DX015 (ip), vehicle: carboxymethylcellulose (CMC) 93 % of control | dose: 32.0 mg/kg/injection, schedule: Q01DX015 (ip), vehicle: carboxymethylcellulose (CMC) 101 % of control | dose: 100.0 mg/kg/injection, schedule: Q01DX001 (ip), vehicle: saline 104 % of control

c1cc[c]([Ge]([CH2][CH2][Sn]([c]2ccccc2)([c]2ccccc2)[c]2ccccc2)([c]2ccccc2)[c]2ccccc2)cc1
inactive: dose: 100.0 mg/kg/injection, schedule: Q04DX002 (ip), vehicle: saline with Tween-80 102 % of control | dose: 200.0 mg/kg/injection, schedule: Q04DX002 (ip), vehicle: saline with Tween-80 98 % of control | dose: 400.0 mg/kg/injection, schedule: Q04DX002 (ip), vehicle: saline with Tween-80 98 % of control
